According to ChEMBL document CHEMBL1201862, “PubChem BioAssay data set” (2004):
Values joined by “and” are separate entries in the source; they are usually repeats but may differ in a detail not shown here. Equal values may be shown once.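 Method: 48-hour compound exposure of cells in 96-well plates, five concentrations, linear interpolation of endpoints. The concentration for 50% growth inhibition is given as GI50.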 Active and inactive are the calls of the source. No stated cut-off is given here; in the data, active = GI50 up to about 1.1 µM and inactive = higher.

Columns and labels:
Assay in all cases: DTP human tumour cell line panel, 48 h
SR = tested on: SR
UACC-257 = tested on: UACC-257
NCI-H226 = tested on: NCI-H226
SK-MEL-2 = tested on: SK-MEL-2
SF-268 = tested on: SF-268
SK-MEL-5 = tested on: SK-MEL-5
CCRF-CEM = tested on: CCRF-CEM
LOX IMVI = tested on: LOX IMVI
MOLT-4 = tested on: MOLT-4
A549 = tested on: A549
MDA-N = tested on: MDA-N
RPMI-8226 = tested on: RPMI-8226
SW-620 = tested on: SW-620
COLO 205 = tested on: COLO 205
OVCAR-8 = tested on: OVCAR-8
M14 = tested on: M14
BT-549 = tested on: BT-549
A498 = tested on: A498
SN12C = tested on: SN12C
HL-60 = tested on: HL-60

| Structure (SMILES) | GI50 (SR) | GI50 (UACC-257) | GI50 (NCI-H226) | GI50 (SK-MEL-2) | GI50 (SF-268) | GI50 (SK-MEL-5) | GI50 (CCRF-CEM) | GI50 (LOX IMVI) | GI50 (MOLT-4) | GI50 (A549) | GI50 (MDA-N) | GI50 (RPMI-8226) | GI50 (SW-620) | GI50 (COLO 205) | GI50 (OVCAR-8) | GI50 (M14) | GI50 (BT-549) | GI50 (A498) | GI50 (SN12C) | GI50 (HL-60) |
| --- | --- | --- | --- | --- | --- | --- | --- | --- | --- | --- | --- | --- | --- | --- | --- | --- | --- | --- | --- | --- |
| CC1=CC(=O)N(n2c(Cc3ccccc3)n[nH]c2=O)C1=O | 72.6 µM (inactive) | > 100 µM (inactive) | > 100 µM (inactive) | > 100 µM (inactive) | > 100 µM (inactive) | > 100 µM (inactive) | 23.3 µM (inactive) | 83.4 µM (inactive) | 33.9 µM (inactive) | > 100 µM (inactive) | > 100 µM (inactive) | 52 µM (inactive) | 83.9 µM (inactive) | > 100 µM (inactive) | > 100 µM (inactive) | > 100 µM (inactive) | > 100 µM (inactive) | > 100 µM (inactive) | > 100 µM (inactive) | – |
| c1ccc(C(CCN2CC3CCC(CC3)C2)c2ccccc2)cc1 | 19.7 µM (inactive) | 16.2 µM (inactive) | 19.6 µM (inactive) | 20.5 µM (inactive) | 25.6 µM (inactive) | 16.5 µM (inactive) | – | 16.9 µM (inactive) | 18.2 µM (inactive) | 31.2 µM (inactive) | 23 µM (inactive) | 16.8 µM (inactive) | 29.9 µM (inactive) | 12.6 µM (inactive) | 28.6 µM (inactive) | 14.3 µM (inactive) | 42.2 µM (inactive) | 15.6 µM (inactive) | 26.4 µM (inactive) | – |
| O=C1C(Br)=CC2(C=C1Br)CCNC1=C2C(=O)c2ncccc2C1=O | 0.457 µM (active) | 0.631 µM (active) | 1.67 µM (inactive) | 0.116 µM (active) | 1.49 µM (inactive) | 0.533 µM (active) | 1.58 µM (inactive) | 0.313 µM (active) | 1.83 µM (inactive) | 1.44 µM (inactive) | 0.183 µM (active) | 0.621 µM (active) | 1.1 µM (active) | 1.89 µM (inactive) | 1.44 µM (inactive) | 1.55 µM (inactive) | 1.42 µM (inactive) | – | 1.21 µM (inactive) | 1.06 µM (active) |
| COc1ccc(/C=C2/N/C(=N\N=C/C(O)C(O)C(O)CO)NC2=O)cc1 (centres undefined) | > 100 µM (inactive) | > 100 µM (inactive) | 87.7 µM (inactive) | > 100 µM (inactive) | 57.5 µM (inactive) | – | 63 µM (inactive) and 53 µM (inactive) | > 100 µM (inactive) | 88.1 µM (inactive) | > 100 µM (inactive) | 72.6 µM (inactive) | > 100 µM (inactive) | > 100 µM (inactive) and 77.8 µM (inactive) | 91.4 µM (inactive) | > 100 µM (inactive) | 51.8 µM (inactive) | 55.8 µM (inactive) and 28 µM (inactive) | – | > 100 µM (inactive) | > 100 µM (inactive) |
| CN(C)CCNC(=O)c1cccc(C(=O)Nc2ccccc2)c1[N+](=O)[O-] | > 100 µM (inactive) | > 100 µM (inactive) | > 100 µM (inactive) | > 100 µM (inactive) | > 100 µM (inactive) | > 100 µM (inactive) | > 100 µM (inactive) | – | > 100 µM (inactive) | > 100 µM (inactive) | > 100 µM (inactive) | – | > 100 µM (inactive) | 54.2 µM (inactive) | > 100 µM (inactive) | > 100 µM (inactive) | 34 µM (inactive) | > 100 µM (inactive) | > 100 µM (inactive) | > 100 µM (inactive) |
| COC(=O)CCCc1ccc2c(c1)CCC2 | > 100 µM (inactive) | > 100 µM (inactive) | > 100 µM (inactive) | > 100 µM (inactive) | > 100 µM (inactive) | > 100 µM (inactive) | > 100 µM (inactive) | > 100 µM (inactive) | > 100 µM (inactive) | > 100 µM (inactive) | > 100 µM (inactive) | > 100 µM (inactive) | > 100 µM (inactive) | > 100 µM (inactive) | > 100 µM (inactive) | > 100 µM (inactive) | > 100 µM (inactive) | – | > 100 µM (inactive) | > 100 µM (inactive) |
| CN1CCN(c2ccc(-n3cc(C(=O)O)c(=O)c4cc(F)c(N5CCN(C)CC5)cc43)nc2)CC1 | > 100 µM (inactive) | > 100 µM (inactive) | > 100 µM (inactive) | – | > 100 µM (inactive) | – | > 100 µM (inactive) | > 100 µM (inactive) | > 100 µM (inactive) | > 100 µM (inactive) | > 100 µM (inactive) | > 100 µM (inactive) | 56.2 µM (inactive) | 25.4 µM (inactive) | 85.1 µM (inactive) | > 100 µM (inactive) | 80 µM (inactive) | > 100 µM (inactive) | > 100 µM (inactive) | > 100 µM (inactive) |
